Measurements reported in ChEMBL document CHEMBL2321831, “Design, synthesis, and biological evaluations of novel 7-[7-amino-7-methyl-5-azaspiro[2.4]heptan-5-yl]-8-methoxyquinolines with potent antibacterial activity against respiratory pathogens” (J Med Chem, 2013).
≈ marks a conversion by molar mass, not a printed value. Calls of active or inactive are those of the source. The calls are words filed in the database; no cut-off is given here.

What was measured:
Chlamydia pneumoniae [1] = assay: Ratio of MIC for levofloxacin to compound MIC for Chlamydophila pneumoniae AR39; type: functional
[2] = test system: Mycoplasmoides pneumoniae; assay: Ratio of MIC for levofloxacin to compound MIC for Mycoplasma pneumoniae ATCC 29085; type: functional
[3] = test system: Mycoplasmoides pneumoniae; assay: Ratio of MIC for levofloxacin to compound MIC for Mycoplasma pneumoniae 18-1; type: functional
Bacillus subtilis [4] = assay: Ratio of MIC for levofloxacin to compound MIC for Bacillus subtilis IID 685; type: functional
Enterococcus faecalis [5] = assay: Ratio of MIC for levofloxacin to compound MIC for Enterococcus faecalis ATCC 19433; type: functional
Streptococcus pyogenes [6] = assay: Ratio of MIC for levofloxacin to compound MIC for Streptococcus pyogenes G-36; type: functional
Streptococcus pneumoniae [7] = assay: Ratio of MIC for levofloxacin to compound MIC for penicillin-susceptible Streptococcus pneumoniae J24; type: functional
[8] = test system: Staphylococcus epidermidis; assay: Ratio of MIC for levofloxacin to compound MIC for Staphylococcus epidermidis 56500; type: functional
Staphylococcus aureus [9] = assay: Ratio of MIC for levofloxacin to compound MIC for Staphylococcus aureus FDA 209-P; type: functional
Streptococcus pneumoniae [10] = assay: Antibacterial activity against quinolone-sensitive Streptococcus pneumoniae infected in po dosed CBA/JNCrj mouse pneumonia model administered bid measured day after final administration of drug; type: functional, organism-based
Streptococcus pneumoniae [11] = assay: Antibacterial activity against quinolone-resistant Streptococcus pneumoniae infected in sc dosed CBA/JNCrj mouse pneumonia model administered bid measured day after final administration of drug; type: functional, organism-based
Mus musculus [12] = assay: Toxicity in SLC:ddY mouse assessed as induction of micronucleus formation at 150 mg/kg, iv after 24 to 48 hrs by fluorescence microscopic analysis; type: organism-based; design: dose 150 mg/kg, route intravenous; conditions: in vivo
Mus musculus [13] = assay: Toxicity in SLC:ddY mouse assessed as induction of micronucleus formation at 100 mg/kg, iv after 24 to 48 hrs by fluorescence microscopic analysis; type: organism-based; design: dose 100 mg/kg, route intravenous; conditions: in vivo
Mus musculus [14] = assay: Toxicity in SLC:ddY mouse assessed as induction of micronucleus formation at 50 mg/kg, iv after 24 to 48 hrs by fluorescence microscopic analysis; type: organism-based; design: dose 50 mg/kg, route intravenous; conditions: in vivo
Mus musculus [15] = assay: Toxicity in SLC:ddY mouse assessed as mortality at 150 mg/kg, iv after 7 days; type: organism-based; design: dose 150 mg/kg, route intravenous; conditions: in vivo, 168 h
Mus musculus [16] = assay: Toxicity in SLC:ddY mouse assessed as mortality at 100 mg/kg, iv after 7 days; type: organism-based; design: dose 100 mg/kg, route intravenous; conditions: in vivo, 168 h
Mus musculus [17] = assay: Toxicity in SLC:ddY mouse assessed as mortality at 50 mg/kg, iv after 7 days; type: organism-based; design: dose 50 mg/kg, route intravenous; conditions: in vivo, 168 h
[18] = Primary phase half life in cynomolgus monkey serum at 5 mg/kg, iv; type: ADME, organism-based, Macaca fascicularis; design: dose 5 mg/kg, route intravenous; conditions: read-out: alphat1/2 (converted)
[19] = AUC (0 to 8 hrs) in cynomolgus monkey serum at 5 mg/kg, iv; type: ADME, organism-based, Macaca fascicularis, Plasma; design: time < 8 hr, dose 5 mg/kg, route intravenous
[20] = Drug uptake in cynomolgus monkey serum at 5 mg/kg, iv after 5 mins; type: ADME, organism-based, Macaca fascicularis; design: dose 5 mg/kg, route intravenous; conditions: read-out: Drug uptake
[21] = Drug recovery in cynomolgus monkey urine at 5 mg/kg, po after 24 hrs; type: ADME, organism-based, Macaca fascicularis; design: dose 5 mg/kg, route oral; conditions: read-out: Drug recovery
[22] = Bioavailability in cynomolgus monkey at 5 mg/kg, po; type: ADME, organism-based, Macaca fascicularis; conditions: in vivo
[23] = Half life in cynomolgus monkey serum at 5 mg/kg, po; type: ADME, organism-based, Macaca fascicularis; design: dose 5 mg/kg, route oral
[24] = Cmax in cynomolgus monkey serum at 5 mg/kg, po; type: ADME, organism-based, Macaca fascicularis; design: dose 5 mg/kg, route oral
[25] = AUC (0 to 24 hrs) in cynomolgus monkey serum at 5 mg/kg, po; type: ADME, organism-based, Macaca fascicularis, Plasma; design: time < 24 hr, dose 5 mg/kg, route oral
[26] = Drug recovery in Crj:CD rat urine at 5 mg/kg, po after 24 hrs; type: ADME, organism-based; design: dose 5 mg/kg, route oral; conditions: read-out: Drug recovery
[27] = Drug recovery in cynomolgus monkey urine at 5 mg/kg, iv after 24 hrs; type: ADME, organism-based, Macaca fascicularis; design: dose 5 mg/kg, route intravenous; conditions: read-out: Drug recovery
[28] = Ratio of AUC (0 to 8 hrs) in Crj:CD rat kidney to AUC (0 to 8 hrs) in Crj:CD rat serum at 5 mg/kg, po; type: ADME, organism-based; design: dose 5 mg/kg, route oral; conditions: read-out: Ratio AUC
[29] = Ratio of AUC (0 to 8 hrs) in Crj:CD rat liver to AUC (0 to 8 hrs) in Crj:CD rat serum at 5 mg/kg, po; type: ADME, organism-based; design: dose 5 mg/kg, route oral; conditions: read-out: Ratio AUC
[30] = AUC (0 to 8 hrs) in Crj:CD rat kidney at 5 mg/kg, po; type: ADME, organism-based; design: time < 8 hr, dose 5 mg/kg, route oral
[31] = AUC (0 to 8 hrs) in Crj:CD rat liver at 5 mg/kg, po; type: ADME, organism-based; design: time < 8 hr, dose 5 mg/kg, route oral
[32] = Ratio of AUC (0 to 8 hrs) in Crj:CD rat lung to AUC (0 to 8 hrs) in Crj:CD rat serum at 5 mg/kg, po; type: ADME, organism-based; design: dose 5 mg/kg, route oral; conditions: read-out: Ratio AUC
[33] = AUC (0 to 8 hrs) in Crj:CD rat lung at 5 mg/kg, po; type: ADME, organism-based; design: time < 8 hr, dose 5 mg/kg, route oral
[34] = Cmax in Crj:CD rat serum at 5 mg/kg, po; type: ADME, organism-based; design: dose 5 mg/kg, route oral
[35] = AUC (0 to 8 hrs) in Crj:CD rat serum at 5 mg/kg, po; type: ADME, organism-based; design: time < 8 hr, dose 5 mg/kg, route oral
[36] = Plasma protein binding in human at 5 ug/mL by ultrafiltration method; type: ADME, cell-free; conditions: read-out: PPB (converted)
[37] = Aqueous solubility of the compound; type: physicochemical
hERG (KCNH2) [38] = molecular target: T1, hERG (KCNH2) (Homo sapiens, UniProt Q12809); assay: Inhibition of human ERG expressed in CHOK1 cells at 100 uM; type: cell-based; conditions: CHO-K1 cells expressing hERG
hERG (KCNH2) [39] = molecular target: T1, hERG (KCNH2); assay: Inhibition of human ERG expressed in CHOK1 cells at 30 uM; type: cell-based; conditions: CHO-K1 cells expressing hERG
Cytochrome P450 3A4 = Cytochrome P450 3A4 (Homo sapiens, UniProt P08684); assay: Inhibition of CYP3A4 in human liver microsomes assessed as 1'-hydroxylation of midazolam; type: ADME, Microsome
Streptococcus pneumoniae [40] = assay: Antibacterial activity against levofloxacin-intermediate and levofloxacin-resistant Streptococcus pneumoniae after 18 hrs by microbroth dilution method; type: functional
Chlamydia pneumoniae [41] = assay: Antibacterial activity against Chlamydophila pneumoniae CM-1 after 18 hrs by microbroth dilution method; type: functional; conditions: CM-1, 18 h
Chlamydia pneumoniae [42] = assay: Antibacterial activity against Chlamydophila pneumoniae AR39 after 18 hrs by microbroth dilution method; type: functional; conditions: AR39, 18 h
[43] = test system: Mycoplasmoides pneumoniae; assay: Antibacterial activity against Mycoplasma pneumoniae ATCC 29085 after 18 hrs by microbroth dilution method; type: functional; conditions: ATCC 29085, 18 h
[44] = test system: Mycoplasmoides pneumoniae; assay: Antibacterial activity against Mycoplasma pneumoniae 18-1 after 18 hrs by microbroth dilution method; type: functional; conditions: 18-1, 18 h
Pseudomonas aeruginosa = assay: Antibacterial activity against Pseudomonas aeruginosa PAO1 after 18 hrs by microbroth dilution method; type: functional; conditions: PAO1, 18 h
Moraxella catarrhalis = assay: Antibacterial activity against Moraxella catarrhalis ATCC 25238 after 18 hrs by microbroth dilution method; type: functional; conditions: ATCC 25238, 18 h
Haemophilus influenzae = assay: Antibacterial activity against Haemophilus influenzae ATCC 49247 after 18 hrs by microbroth dilution method; type: functional; conditions: ATCC 49247, 18 h
Escherichia coli = assay: Antibacterial activity against Escherichia coli NIHJ after 18 hrs by microbroth dilution method; type: functional
Klebsiella pneumoniae = assay: Antibacterial activity against Klebsiella pneumoniae TYPE1 after 18 hrs by microbroth dilution method; type: functional; conditions: TYPE1, 18 h
Bacillus subtilis [45] = assay: Antibacterial activity against Bacillus subtilis IID 685 after 18 hrs by microbroth dilution method; type: functional; conditions: IID 685, 18 h
Streptococcus pyogenes [46] = assay: Antibacterial activity against Streptococcus pyogenes G-36 after 18 hrs by microbroth dilution method; type: functional; conditions: G-36, 18 h
Enterococcus faecalis [47] = assay: Antibacterial activity against Enterococcus faecalis ATCC 19433 after 18 hrs by microbroth dilution method; type: functional; conditions: ATCC 19433, 18 h
Streptococcus pneumoniae [48] = assay: Antibacterial activity against quinolone, penicillin-resistant Streptococcus pneumoniae 104835 after 18 hrs by microbroth dilution method; type: functional; conditions: Streptococcus pneumoniae, 104835, 18 h
Streptococcus pneumoniae [49] = assay: Antibacterial activity against penicillin-susceptible Streptococcus pneumoniae J24 after 18 hrs by microbroth dilution method; type: functional; conditions: J24, 18 h
[50] = test system: Staphylococcus epidermidis; assay: Antibacterial activity against Staphylococcus epidermidis 56500 after 18 hrs by microbroth dilution method; type: functional; conditions: Staphylococcus epidermidis, 56500, 18 h
Staphylococcus aureus [51] = assay: Antibacterial activity against levofloxacin-resistant and methicillin-resistant Staphylococcus aureus 870307 after 18 hrs by microbroth dilution method; type: functional; conditions: Staphylococcus aureus, 870307, 18 h
Staphylococcus aureus [52] = assay: Antibacterial activity against Staphylococcus aureus FDA 209-P after 18 hrs by microbroth dilution method; type: functional
Chlamydia pneumoniae [53] = assay: Ratio of MIC for levofloxacin to compound MIC for Chlamydophila pneumoniae CM-1; type: functional
[54] = Chloroform-phosphate buffer apparent partition coefficient of the compound, P at pH 7.4

T1 sequence (Q12809 whole entry): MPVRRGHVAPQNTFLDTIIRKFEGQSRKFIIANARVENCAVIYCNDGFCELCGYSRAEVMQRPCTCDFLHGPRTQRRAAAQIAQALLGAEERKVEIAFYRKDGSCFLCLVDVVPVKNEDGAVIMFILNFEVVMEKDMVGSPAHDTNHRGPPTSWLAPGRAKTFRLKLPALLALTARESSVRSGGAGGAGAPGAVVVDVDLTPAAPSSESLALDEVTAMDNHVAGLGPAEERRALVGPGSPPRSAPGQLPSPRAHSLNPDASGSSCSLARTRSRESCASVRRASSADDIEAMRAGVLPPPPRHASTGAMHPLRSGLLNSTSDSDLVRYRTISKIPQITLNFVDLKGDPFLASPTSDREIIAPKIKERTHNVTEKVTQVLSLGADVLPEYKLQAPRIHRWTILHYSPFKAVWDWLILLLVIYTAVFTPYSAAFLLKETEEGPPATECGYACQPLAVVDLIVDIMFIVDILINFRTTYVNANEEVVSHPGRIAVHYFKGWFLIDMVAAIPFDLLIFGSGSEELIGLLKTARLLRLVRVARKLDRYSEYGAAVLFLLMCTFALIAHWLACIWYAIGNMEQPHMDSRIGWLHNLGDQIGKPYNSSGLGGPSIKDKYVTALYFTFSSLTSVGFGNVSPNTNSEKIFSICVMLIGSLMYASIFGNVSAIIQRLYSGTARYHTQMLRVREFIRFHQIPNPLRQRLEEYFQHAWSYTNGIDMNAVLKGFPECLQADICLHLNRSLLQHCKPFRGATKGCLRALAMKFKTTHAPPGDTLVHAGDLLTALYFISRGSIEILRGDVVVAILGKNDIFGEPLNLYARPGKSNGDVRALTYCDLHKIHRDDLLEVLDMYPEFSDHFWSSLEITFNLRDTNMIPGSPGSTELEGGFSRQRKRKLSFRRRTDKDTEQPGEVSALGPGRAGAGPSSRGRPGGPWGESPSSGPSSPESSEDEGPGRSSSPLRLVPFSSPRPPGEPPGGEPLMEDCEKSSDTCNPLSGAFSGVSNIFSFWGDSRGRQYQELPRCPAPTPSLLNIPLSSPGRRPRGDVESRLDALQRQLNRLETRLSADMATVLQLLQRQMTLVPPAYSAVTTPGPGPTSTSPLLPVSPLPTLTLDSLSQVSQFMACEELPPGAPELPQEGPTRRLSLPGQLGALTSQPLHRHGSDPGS
Sequence of Cytochrome P450 3A4 (P08684 whole entry): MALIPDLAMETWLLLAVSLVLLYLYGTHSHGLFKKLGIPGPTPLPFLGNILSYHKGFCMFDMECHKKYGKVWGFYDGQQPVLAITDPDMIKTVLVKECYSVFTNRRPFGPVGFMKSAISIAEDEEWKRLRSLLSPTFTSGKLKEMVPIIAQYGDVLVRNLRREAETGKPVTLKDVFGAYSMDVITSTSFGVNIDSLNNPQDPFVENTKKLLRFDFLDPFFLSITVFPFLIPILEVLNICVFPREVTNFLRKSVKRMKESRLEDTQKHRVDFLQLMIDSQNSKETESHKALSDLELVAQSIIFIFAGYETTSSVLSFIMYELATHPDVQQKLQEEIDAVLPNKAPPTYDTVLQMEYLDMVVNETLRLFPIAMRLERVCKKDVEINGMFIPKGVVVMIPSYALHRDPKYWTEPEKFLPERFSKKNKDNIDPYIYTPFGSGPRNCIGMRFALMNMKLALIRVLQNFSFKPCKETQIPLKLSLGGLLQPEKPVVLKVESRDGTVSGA

SMILES: COc1c(N2CC3(CC3)[C@](C)(N)C2)c(F)cc2c(=O)c(C(=O)O)cn([C@@H]3C[C@@H]3F)c12
- Ratio (Chlamydia pneumoniae [1]): 4
- Ratio [2]: 4
- Ratio [3]: 4
- Ratio (Bacillus subtilis [4]): >4
- Ratio (Enterococcus faecalis [5]): >4
- Ratio (Streptococcus pyogenes [6]): >4
- Ratio (Streptococcus pneumoniae [7]): >4
- Ratio [8]: >4
- Ratio (Staphylococcus aureus [9]): >4
- Activity (Streptococcus pneumoniae [10]): Active
- Activity (Streptococcus pneumoniae [11]): Active
- Activity (Mus musculus [12]): Non-toxic
- Activity (Mus musculus [13]): Non-toxic
- Activity (Mus musculus [14]): Non-toxic
- Activity (Mus musculus [15]): Non-toxic
- Activity (Mus musculus [16]): Non-toxic
- Activity (Mus musculus [17]): Non-toxic
- half-life [18]: 4.8 h
- AUC(0-t) at 8 h [19]: 23800 ng·h/mL
- concentration at 5 min [20]: 3660 ng/mL
- dose excreted at 24 h [21]: 61.3%
- bioavailability [22]: 71%
- half-life [23]: 4.8 h
- Cmax [24]: 2200 ng/mL
- AUC(0-t) at 24 h [25]: 16900 ng·h/mL
- dose excreted at 24 h [26]: 32%
- dose excreted at 24 h [27]: 69.8%
- Kp [28]: 9
- Kp [29]: 10.4
- AUC(0-t) at 8 h [30]: 27800 ng·h/mL
- AUC(0-t) at 8 h [31]: 32100 ng·h/mL
- Kp [32]: 4.4
- AUC(0-t) at 8 h [33]: 13700 ng·h/mL
- Cmax [34]: 1220 ng/mL
- AUC(0-t) at 8 h [35]: 3080 ng·h/mL
- fraction unbound at 5 ug/mL [36]: 0.653
- solubility [37]: 620 µg/mL (≈ 1480 µM)
- inhibition at 100 µM (hERG (KCNH2) [38]): 2.7%
- inhibition at 30 µM (hERG (KCNH2) [39]): 1.9%
- inhibition (INH) (Cytochrome P450 3A4): Not Active
- MIC50 (Streptococcus pneumoniae [40]): 1 µg/mL (≈ 2.38 µM)
- MIC80 (Streptococcus pneumoniae [40]): 1 µg/mL (≈ 2.38 µM)
- MIC90 (Streptococcus pneumoniae [40]): 1 µg/mL (≈ 2.38 µM)
- MIC (Chlamydia pneumoniae [41]): 0.063 µg/mL (≈ 0.15 µM)
- MIC (Chlamydia pneumoniae [42]): 0.125 µg/mL (≈ 0.298 µM)
- MIC [43]: 0.12 µg/mL (≈ 0.286 µM)
- MIC [44]: 0.12 µg/mL (≈ 0.286 µM)
- MIC (Pseudomonas aeruginosa): 0.78 µg/mL (≈ 1.86 µM)
- MIC (Moraxella catarrhalis): 0.05 µg/mL (≈ 0.119 µM)
- MIC (Haemophilus influenzae): 0.012 µg/mL (≈ 0.0286 µM)
- MIC (Escherichia coli): 0.012 µg/mL (≈ 0.0286 µM)
- MIC (Klebsiella pneumoniae): 0.05 µg/mL (≈ 0.119 µM)
- MIC (Bacillus subtilis [45]): 0.1 µg/mL (≈ 0.238 µM)
- MIC (Streptococcus pyogenes [46]): 0.2 µg/mL (≈ 0.477 µM)
- MIC (Enterococcus faecalis [47]): 0.2 µg/mL (≈ 0.477 µM)
- MIC (Streptococcus pneumoniae [48]): 0.39 µg/mL (≈ 0.93 µM)
- MIC (Streptococcus pneumoniae [49]): 0.05 µg/mL (≈ 0.119 µM)
- MIC [50]: 0.1 µg/mL (≈ 0.238 µM)
- MIC (Staphylococcus aureus [51]): 0.39 µg/mL (≈ 0.93 µM)
- MIC (Staphylococcus aureus [52]): 0.025 µg/mL (≈ 0.0596 µM)
- Ratio (Chlamydia pneumoniae [53]): 4
- P [54]: 19.2
